The nature of series [1]: Thermodynamic solubility of the compound. Type of series: physicochemical. The conditions noted are these: read-out: Therm_solubility.
Series [2] is described as follows: Solubility of the compound in FaSSIF at pH 6.4. Format: physicochemical.
Series [3] in a line: Solubility of the compound in PBS at pH 7.4. Format: physicochemical.
Series [4] is described as follows: Solubility of the compound in FeSSIF at pH 5.2. Format: physicochemical.
Series [5] is described as follows: Volume of distribution at steady state in mouse. Format: ADME, organism-based. The conditions noted are these: in vivo, read-out: Vdss.
A short description of series [6]: Volume of distribution at steady state in dog. Format: ADME, organism-based, Canis lupus familiaris. The conditions noted are these: in vivo, read-out: Vdss.
The nature of series [7]: Oral bioavailability in monkey. The conditions noted are these: rhesus monkey, in vivo. Format: ADME, organism-based, Macaca mulatta.
Series [8] is described as follows: Volume of distribution at steady state in monkey. Type of series: ADME, organism-based, Macaca mulatta. The conditions noted are these: rhesus monkey, in vivo; read-out: Vdss.
The nature of series [9]: Volume of distribution at steady state in rat. The conditions noted are these: in vivo, read-out: Vdss. Type of series: ADME, organism-based.
Series [10] is described as follows: Oral bioavailability in mouse. The conditions noted are these: in vivo. Type of series: ADME, organism-based.
Series [11] in a line: Oral bioavailability in dog. The conditions noted are these: in vivo. Format: ADME, organism-based, Canis lupus familiaris.
A short description of series [12]: Oral bioavailability in rat. Type of series: ADME, organism-based. The conditions noted are these: in vivo.

Each structure is given as a SMILES string. In brackets after ≈: the same amount, converted by molar mass.

The solubility (kinetic) is solubility judged after dilution from a stock solution rather than from solid. One may read the solubility as how much of the substance goes into solution per volume. Broadly, the bioavailability is the share of a dose that reaches the circulation, judged against a reference dose that is usually intravenous.

Turning to `Cn1cc(-c2ccc(Cc3n[nH]c4ccc(NS(C)(=O)=O)cc34)cc2)cn1`, the solubility (kinetic) in the series “physchem” was 153 µM (≈ 58.4 µg/mL). In the series “physchem”, `COC1CN(C(=O)c2ccc3[nH]nc(Cc4ccc(-c5cnn(C)c5)cc4)c3c2)C1` registered a kinetic solubility of 170 µM (≈ 68.2 µg/mL). Compound `Cn1cc(-c2ccc(Cc3n[nH]c4ccc(S(=O)(=O)NC5CC5)cc34)cc2)cn1` came in with a kinetic solubility in “physchem” of 107 µM (≈ 43.6 µg/mL). As for `Cn1cc(-c2ccc(Cc3n[nH]c4ccc(N5CCOCC5)cc34)cc2)cn1`, in “physchem”, the kinetic solubility stood at 153 µM (≈ 57.1 µg/mL).

Turning to `Cn1cc(-c2ccc(Cc3n[nH]c4ccc(-c5nccn5C)cc34)cc2)cn1`, in the series “physchem”, the kinetic solubility is 96 µM (≈ 35.4 µg/mL). Still for that read-out and setting: in the case of `CNC(=O)c1ccc2[nH]nc(CC(C)C)c2c1` it was more than 200 µM; in that of `Cn1cc(-c2ccc(Cc3n[nH]c4ccc(C(=O)N5CCOCC5)cc34)cc2)cn1`, 170 µM (≈ 68.2 µg/mL); in that of `CNC(=O)c1ccc2[nH]nc(Cc3ccc4cnn(C)c4c3)c2c1`, 192 µM (≈ 61.3 µg/mL). Still for that read-out and setting: in the case of `COC1CN(C(=O)c2ccc3[nH]nc(Cc4ccc5c(cnn5C)c4)c3c2)C1` it was more than 200 µM. Still for that read-out and setting: the result for `Cn1ncc2cc(Cc3n[nH]c4ccc(C(=O)N5CC[C@H](O)C5)cc34)ccc21` reads more than 200 µM. As to `CNC(=O)c1ccc2[nH]nc(Cc3ccc(OC)c(OC)c3)c2c1`, the solubility (kinetic) in “physchem” is 176 µM (≈ 57.3 µg/mL). For `Cn1ncc2cc(Cc3n[nH]c4ccc(C(=O)N5CCC(F)(F)C5)cc34)ccc21`, the kinetic solubility in the series “physchem” is 157 µM (≈ 62.1 µg/mL). Same read-out and setting: in the case of `Cn1cc(-c2ccc(Cc3n[nH]c4ccc(C(=O)N5CC(F)(F)C5)cc34)cc2)cn1` it was 89 µM (≈ 36.3 µg/mL). Still for that read-out and setting: in the case of `Cn1cc(-c2ccc(Cc3n[nH]c4ccc(C(=O)N5CC[C@@H](O)C5)cc34)cc2)cn1` it was 181 µM (≈ 72.7 µg/mL); in that of `Cn1cc(-c2ccc(Cc3n[nH]c4ccc(C(=O)N5CC[C@H](O)C5)cc34)cc2)cn1`, 200 µM (≈ 80.3 µg/mL). The same measure, in the same setting: in the case of `Cn1cc(-c2ccc(Cc3n[nH]c4ccc(C(=O)N5CCCCC5)cc34)cc2)cn1` it was 106 µM (≈ 42.3 µg/mL).

`Cn1cc(-c2ccc(Cc3n[nH]c4ccc(C(=O)N5CC(O)C5)cc34)cc2)cn1` displayed a kinetic solubility in the series “physchem” of 196 µM (≈ 75.9 µg/mL).

As for `CC(=O)Nc1ccc2[nH]nc(Cc3ccc(-c4cnn(C)c4)cc3)c2c1`, the kinetic solubility in the series “physchem” was determined as 115 µM (≈ 39.7 µg/mL). `Cn1cnc(-c2ccc3[nH]nc(Cc4ccc(-c5cnn(C)c5)cc4)c3c2)c1`: in “physchem”, the solubility (kinetic) was 6 µM (≈ 2.21 µg/mL). In the case of `CNC(=O)c1ccc2[nH]nc(Cc3ccc(-c4cnn(C)c4)cc3)c2c1`, in series [1], the solubility thermodynamic came out at 6 µg/mL (≈ 17.4 µM). The compound further returned a solubility (kinetic) in “physchem” of 169 µM (≈ 58.4 µg/mL). `Cn1cc(-c2ccc(Cc3n[nH]c4ccc(N5CCCC5=O)cc34)cc2)cn1` gave a solubility (kinetic) in “physchem” of 147 µM (≈ 54.6 µg/mL). Consider `Cn1cc(-c2ccc(Cc3n[nH]c4ccc(C(=O)N5CCNCC5)cc34)cc2)cn1`, for which the kinetic solubility in “physchem” is 186 µM (≈ 74.5 µg/mL).

Consider `CNC(=O)c1ccc2[nH]nc(Cc3ccc4c(cnn4C)c3)c2c1`, for which the solubility is 32 µg/mL (≈ 100 µM) in series [2], 6 µg/mL (≈ 18.8 µM) in series [3] and 59 µg/mL (≈ 185 µM) in series [4]. Moreover, the solubility thermodynamic in [1] is 6 µg/mL (≈ 18.8 µM). The compound also returned a kinetic solubility in “physchem” of more than 200 µM. For the same compound, the Vd in [5] stood at 0.69 L/kg; in series [6] it was 1.8 L/kg; in series [8], 0.95 L/kg; in series [9], 0.85 L/kg. For the same compound, the bioavailability in series [7] came out at 26%; in [10] it was 50%; in [11] it was 85%; in series [12], 88%. In “physchem”, `CC(=O)NCCNc1ccc2[nH]nc(Cc3ccc(-c4cnn(C)c4)cc3)c2c1` had a kinetic solubility of 183 µM (≈ 71.1 µg/mL). On to `Cn1cc(-c2ccc(Cc3n[nH]c4ccc(C(N)=O)cc34)cc2)cn1`, for which the solubility (kinetic) in “physchem” is 173 µM (≈ 57.3 µg/mL). The same measure, in the same setting: the result for `Cn1cc(-c2ccc(Cc3n[nH]c4ccc(C(=O)NC5CC5)cc34)cc2)cn1` reads 76 µM (≈ 28.2 µg/mL). The same measure, in the same setting: the result for `Cn1cc(-c2ccc(Cc3n[nH]c4ccc(C(=O)N5CCC(F)(F)C5)cc34)cc2)cn1` reads 104 µM (≈ 43.8 µg/mL). On to `CNC(=O)c1ccc2[nH]nc(Cc3ccc(-c4cnn(CC(C)(C)O)c4)cc3)c2c1`, for which the solubility thermodynamic in series [1] came out at 26 µg/mL (≈ 64.4 µM). Besides, the solubility (kinetic) in the series “physchem” came out at 182 µM (≈ 73.4 µg/mL). In the case of `Cn1cc(-c2ccc(Cc3n[nH]c4ccc(-c5cc(N)ccn5)cc34)cc2)cn1`, the solubility (kinetic) in “physchem” came out at 53 µM (≈ 20.2 µg/mL). With `CNC(=O)c1ccc2[nH]nc(Cc3cccc(C)c3)c2c1`, the kinetic solubility in “physchem” is 167 µM (≈ 46.7 µg/mL).

For the origin of these results see ChEMBL document CHEMBL3774357, “Discovery of potent and selective CDK8 inhibitors from an HSP90 pharmacophore” (Bioorg Med Chem Lett, 2016).
